Source: patent US20090311292A1, “PROCESS FOR SYNTHESIS AND INCORPORATION OF NITRIC OXIDE DONORS IN MACROMOLECULAR COMPOSITIONS” (CRISTALIA PRODUTOS QUIMICOS FARMACEUTICOS LTDA., priority 2006, published 2009)

Columns and labels:
[1] = 25° C. in the dark, 0.1 to 61.0 mmol L^−1, follow-up 3.5 hours; cited from earlier work
[2] = incorporated in PEO-PPO-PEO gel at 37° C.; cited from earlier work
[3] = Stability of GSNO incorporated in PEO-PPO-PEO matrix (Pluronic F-127) under refrigeration; type: physicochemical; conditions: for Content (%) 30 days / Content (%) 45 days / Content (%) 110 days / Content (%) Initial: 5-8° C.
[4] = Stability of solid GSNO stored at room temperature (absorbance at 336 nm); type: physicochemical; conditions: amber glass vials, room temperature (25° C.)
Protocol: Samples of solid GSNO were stored in amber glass vials and maintained at room temperature (25° C.) for evaluation of its stability. GSNO content in the samples at day 0, after 48 hours (day 2) and after 5 days was quantified from the absorbance readings of the aqueous solutions 500 μmol L^−1 at 336 nm. […] According to the results, after 48-hours of storage at room temperature, decomposition of approximately 52% of the initial GSNO content occurs.

[5] = tested on: excisional wound on the back of Wistar rats; assay: Cutaneous wound healing in an animal model (excisional wound); type: in vivo
Text: 6.1. Acceleration of cutaneous wound healing in an animal model. […] The formulation of freshly prepared GSNO (100 μmol L^−1) was topically applied to the wounds of the animals. Wistar rats (n=10) were housed in individual cages with free access to water. In the first day (Day 0-d0), an excisional wound (2×2 cm) was made on the back of the animals, under general anesthesia. The wound was covered with either pure hydrogel (control animals) or GSNO-containing hydrogel (treated group). Thereafter, the wounds were closed with a dressing. Daily, up to the fourth day after injury, the dressings were removed, and the wounds were gently cleaned with cold saline. The hydrogel (either containing GSNO or not) was applied and the dressing was replaced. From the fifth day after injury on, the wounds were no longer closed with a dressing.
Wound retraction was measured and reepithelization was evaluated histologically. Wound contours were traced in a transparent paper sheet at the day of injury and after 3, 5, 7, 14 and 21 days. The tracing area was determined using image-analysis software (Image-Pro) and the results were expressed as percentages of the initial area. Blood pressure was measured at the beginning and end of the experiments. After euthanasia, a fragment containing the wound and the adjacent healthy skin was removed. The fragments were fixed in formalin solution, processed and embedded in paraffin. The paraffin-embedded specimens were serially sectioned and 5-μm-thick cuts were obtained and stained using the following techniques: hematoxylin-eosin (for overall observation of the tissue fragment), picro-Mallory (for observation of the connective tissue) and picrosirius red (for observation of the collagen fibers). The blood pressure of the control and treated animals was equivalent at the beginning and end of the experiments.

[6] = Stability of solid glutathione at 30° C. and 40° C. (UV-visible spectrophotometry after conversion to GSNO); type: physicochemical; conditions: for Content (%) 30 days / Content (%) 70 days / Content (%) 105 days / Content (%) 165 days / Content (%) Initial: solid
Protocol: Samples of solid glutathione (GSH) were stored in amber glass vials and maintained at temperatures of 30° C. and 40° C. for evaluation of its stability. GSH content in the samples was determined by UV-visible spectrophotometry from the reaction between GSH and NaNO2 in acid medium (aqueous HCl solution, 2.0 mol L^−1) forming GSNO with absorption bands at 336 nm and 545 nm. GSNO formation (0.05 mol L^−1) was quantified by the intensity of the GSNO absorption band at 545 nm.

[7] = 50 μmolL^−1 in hydrogel formulation
[8] = 100 μmolL^−1 in hydrogel formulation
[9] = 200 μmolL^−1 in hydrogel formulation
[10] = twenty-one days after injury, superficial and deep areas

Compound: CC(=O)N[C@@H](CSN=O)C(=O)O [SNAC, S-nitroso-N-acetylcysteine]
- thermal decomposition of aqueous solution [1]: undergo spontaneous thermal decomposition
- initial rate of thermal decomposition [2]: 7.2 μmolL^−1 min^−1

Compound: N[C@@H](CSN=O)C(=O)O [S-nitrosocysteine, reference compound]
- thermal decomposition of aqueous solution [1]: undergo spontaneous thermal decomposition

Compound: N[C@@H](CCC(=O)N[C@@H](CSN=O)C(=O)NCC(=O)O)C(=O)O [GSNO, S-nitrosoglutathione]
- thermal decomposition of aqueous solution [1]: undergo spontaneous thermal decomposition
- Content (%) 30 days [3, 7]: 96 ± 6%
- Content (%) 45 days [3, 7]: 89 ± 6%
- Content (%) 110 days [3, 7]: 85 ± 6%
- Content (%) Initial [3, 7]: 100 ± 6%
- Content (%) 30 days [3, 8]: 103 ± 6%
- Content (%) 45 days [3, 8]: 100 ± 6%
- Content (%) 110 days [3, 8]: 80 ± 6%
- Content (%) Initial [3, 8]: 100 ± 6%
- Content (%) 30 days [3, 9]: 90 ± 6%
- Content (%) 45 days [3, 9]: 90 ± 6%
- Content (%) 110 days [3, 9]: 85 ± 6%
- Content (%) Initial [3, 9]: 100 ± 6%
- decrease in relation to the initial GSNO content ([3]; in PEO-PPO-PEO matrix, 50, 100 and 200 μmol L^−1, 110 days at 5-8° C.): about 20%
- Content (%) After 2 days [4]: 48 ± 6%
- Content (%) After 5 days [4]: 36 ± 6%
- Content (%) Initial (day 0) [4]: 100 ± 6%
- initial rate of thermal decomposition [2]: 2.3 μmolL^−1 min^−1
- area of wound reepithelization larger compared to the control group ([5]; 7 days after injury): > 77%
- wound retraction versus control group ([5]; after 3, 5 and 7 days of injury (p=0.01; p=0.05; p=0.007), GSNO-containing hydrogel 100 μmol L^−1): greater
- new epidermis formation compared to the control animals ([5]; after 14 and 21 days of injury): more accentuated
- wound contraction in relation to the controls ([5]; after 14 and 21 days of injury): greater
- blood pressure of control and treated animals ([5]; beginning and end of the experiments, GSNO 100 μmol L^−1 in Pluronic F-127 hydrogel, topical): equivalent
- wound area in control animals larger than in GSNO-treated animals ([5]; fourteen days after injury): 22%
- number of microvessels in relation to the control group ([5]; twenty-one days after injury): tendency of increase
- total number of mast cells in deep areas of the granulation tissue compared to the control group ([5]; twenty-one days after injury): +384%
- wound area in control animals larger than in GSNO-treated animals ([5]; twenty-one days after injury): 20%
- inflammatory cells in granulation tissue of control group in comparison to GSNO-treated group [5, 10]: larger number
- number of fibroblasts in granulation tissue compared to the control group [5, 10]: increase

Compound: N[C@@H](CCC(=O)N[C@@H](CS)C(=O)NCC(=O)O)C(=O)O [GSH, glutathione]
- time remained stable ([6]; solid form, follow up by UV-visible spectrophotometry): at least 165 days
- Content (%) 30 days ([6]; 30° C.): 100 ± 6%
- Content (%) 70 days ([6]; 30° C.): 102 ± 6%
- Content (%) 105 days ([6]; 30° C.): 103 ± 6%
- Content (%) 165 days ([6]; 30° C.): 100 ± 6%
- Content (%) Initial ([6]; 30° C.): 100 ± 6%
- Content (%) 30 days ([6]; 40° C.): 100 ± 6%
- Content (%) 70 days ([6]; 40° C.): 100 ± 6%
- Content (%) 105 days ([6]; 40° C.): 99 ± 6%
- Content (%) 165 days ([6]; 40° C.): 101 ± 6%
- Content (%) Initial ([6]; 40° C.): 100 ± 6%
